Each block holds one molecule with its values, some of them ahead of it. No end group written: not given here.
Target: T1, human TAS1R2-P21L/TAS1R3-WT (Homo sapiens, UniProt Q7RTX0+Q8TE23, P21L)
T1 construct: expressed in transfected cells; host or cells: HEK293T-Gα16gust44
T1 sequence (Q8TE23 20-839 P21L): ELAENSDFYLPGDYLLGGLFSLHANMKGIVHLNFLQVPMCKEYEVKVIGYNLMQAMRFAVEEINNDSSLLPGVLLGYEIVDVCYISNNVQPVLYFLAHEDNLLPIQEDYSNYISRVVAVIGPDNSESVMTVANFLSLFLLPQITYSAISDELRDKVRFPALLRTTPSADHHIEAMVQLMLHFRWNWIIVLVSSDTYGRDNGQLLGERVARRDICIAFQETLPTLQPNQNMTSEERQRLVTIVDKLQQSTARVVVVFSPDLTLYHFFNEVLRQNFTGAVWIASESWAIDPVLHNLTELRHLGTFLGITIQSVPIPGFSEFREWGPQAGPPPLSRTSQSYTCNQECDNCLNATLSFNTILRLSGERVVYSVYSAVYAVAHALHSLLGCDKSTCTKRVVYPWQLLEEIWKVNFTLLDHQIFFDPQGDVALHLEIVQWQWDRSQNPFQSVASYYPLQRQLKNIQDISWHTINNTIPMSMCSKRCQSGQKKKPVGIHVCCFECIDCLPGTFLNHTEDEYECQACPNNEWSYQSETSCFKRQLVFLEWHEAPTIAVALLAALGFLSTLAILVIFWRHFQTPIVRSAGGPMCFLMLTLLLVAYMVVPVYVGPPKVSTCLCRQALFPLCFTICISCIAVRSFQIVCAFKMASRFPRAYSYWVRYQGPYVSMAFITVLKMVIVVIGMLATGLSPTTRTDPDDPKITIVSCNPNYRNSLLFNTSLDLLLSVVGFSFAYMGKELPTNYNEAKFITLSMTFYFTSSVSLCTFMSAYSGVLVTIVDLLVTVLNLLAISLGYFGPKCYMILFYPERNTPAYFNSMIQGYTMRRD
T1 sequence (Q7RTX0 21-852): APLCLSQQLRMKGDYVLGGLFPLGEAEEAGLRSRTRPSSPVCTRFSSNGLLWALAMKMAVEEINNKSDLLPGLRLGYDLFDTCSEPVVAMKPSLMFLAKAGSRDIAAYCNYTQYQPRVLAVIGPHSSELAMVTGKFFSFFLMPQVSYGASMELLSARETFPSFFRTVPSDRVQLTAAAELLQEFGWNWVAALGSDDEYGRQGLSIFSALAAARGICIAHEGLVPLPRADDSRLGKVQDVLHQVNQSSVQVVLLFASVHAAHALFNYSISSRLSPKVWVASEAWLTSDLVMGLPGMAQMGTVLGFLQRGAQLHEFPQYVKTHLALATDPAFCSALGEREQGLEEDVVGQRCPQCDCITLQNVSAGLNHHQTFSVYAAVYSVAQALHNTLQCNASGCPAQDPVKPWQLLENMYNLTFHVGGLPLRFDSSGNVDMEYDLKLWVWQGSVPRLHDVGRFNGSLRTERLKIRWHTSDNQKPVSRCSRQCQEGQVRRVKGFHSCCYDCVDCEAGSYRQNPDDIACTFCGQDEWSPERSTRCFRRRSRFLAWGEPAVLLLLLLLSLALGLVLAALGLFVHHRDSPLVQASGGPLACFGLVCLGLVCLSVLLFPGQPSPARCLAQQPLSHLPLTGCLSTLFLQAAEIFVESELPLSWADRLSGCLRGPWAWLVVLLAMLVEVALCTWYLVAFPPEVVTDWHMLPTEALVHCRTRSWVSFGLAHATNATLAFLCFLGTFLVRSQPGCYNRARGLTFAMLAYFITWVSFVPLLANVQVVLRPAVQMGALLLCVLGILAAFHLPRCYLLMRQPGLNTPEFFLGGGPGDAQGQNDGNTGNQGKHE
Assay: Calcium mobilisation assay, TAS1R2 variant P21L with TAS1R3-WT
Assay type: cell-based
Conditions: for Max ΔF/F0: maximal signal amplitude
Text: The coding sequences for TAS1R2 and TAS1R3 were commercially synthesised, and the human codon was optimised for expression in human cells. The coding sequences of human TAS1R2 and TAS1R3 were subcloned and inserted into the mammalian expression vectors pcDNA6/myc-HisA and pcDNA4/myc-HisA (Invitrogen; Thermo Fisher Scientific; Illkirch, France) between the EcoRI and NotI restriction sites, generating the plasmids pcDNA6-TAS1R2 and pcDNA4-TAS1R3, respectively. To increase protein expression in mammalian cells, an upstream start codon was used, which was a sequence called MAX, corresponding to the QBI SP163 element also described in pcDNA4-HisMax (Invitrogen; Thermo Fisher Scientific; Illkirch, France). To measure the expression level of the receptor by immunohistochemistry, we used the FLAG sequence ([…]) in the C-terminal position, which encodes the FLAG tag epitope. SNP variants of TAS1R2 and TAS1R3 were constructed based on […], respectively, using site-directed mutagenesis (Genewiz; Leipzig, Germany).
The HEK293T cells were kindly provided by Jay P. Slack (Givaudan Flavors Corporation; Cincinnati, OH, USA). HEK293T cells stably transfected with Gα16gust44 [43, 67] were seeded in poly-D-lysine-coated clear-bottom black 96-well plates (0.35 × 10^5 cells/well) in high-glucose DMEM supplemented with 2 mM GlutaMAX, 10% dialysed foetal bovine serum with penicillin/streptomycin and G418 (400 μg/mL) at 37 °C and 6.3% CO2 in a humidified atmosphere as previously reported. […] As a negative control, HEK293T cells were mock-transfected with the empty expression vector. After a further 24 h of incubation, the HEK293T cells were washed with C1 buffer (130 mM NaCl, 5 mM KCl, 10 mM HEPES pH 7.4 and 2 mM CaCl2). The 96-well plates containing the cells were then stimulated with sweet-tasting compounds. […] Different concentration ranges were tested depending on the sweet compound injected. The Ca^2+ changes were expressed as fractional changes in fluorescent light intensity: ΔF/F = (F − F0)/F0, where F was the fluorescent light intensity at each point, and F0 was the value of emitted fluorescent light prior to stimulus application. To calculate dose–response relationships, the changes in fluorescence upon stimulus application were averaged, mock-subtracted and baseline-corrected. The dose–response data obtained were adjusted using a 4-parameter logistic equation. The half-maximal effective concentrations (EC50 values) and maximal signal amplitudes were calculated using SigmaPlot software (version 15.0) (Systat Software; San Jose, CA, USA).
For in vitro calcium mobilisation assay performed on hTAS1R2-SNPs, hTAS1R3-SNPs and mTAS1R3-I60T, 6 to 7 concentrations were tested for each sweet compound, plus buffer alone. All concentration–receptor combinations were measured in duplicate, and each experiment was repeated at least 4 times (8 wells/concentration). Results were expressed for each concentration as ΔF/F mean ± SEM and represented as dose–response curves.

R1 = Variant EC50/WT EC50: 1.1
Max ΔF/F0: 1.09 ± 0.01
Molecule: brazzein (QDKCKKVYENYPVSKCQLANQCNYDCKLDKHARSGECFYDEKRNLQCICDYCEY; ends and bridges not checked; cysteine pairing not given here; UniProt P56552 1-54, looked up) [sweet-tasting protein obtained by recombinant production using the yeast Pichia pastoris]

R1 = Variant EC50/WT EC50: 0.4
Max ΔF/F0: 0.19 ± 0.04
Molecule: thaumatin

EC50: 3.3 µM
B1: thaumatin (protein)
chain: ATFEIVNRCSYTVWAAASKGDAALDAGGRQLNSGESWTINVEPGTKGGKIWARTDCYFDDSGSGICKTGDCGGLLRCKRFGRPPTTLAEFSLNQYGKDYIDISNIKGFNVPMDFSPTTRGCRGVRCAADIVGQCPAKLKAPGGGCNDACTVFQTSEYCCTTGKCGPTEYSRFFKRLCPDAFSYVLDKPTTVTCPGSSNYRVTFCPTA
modifications: Eight disulfides
notes: sweet-tasting plant protein, E957

The next lines start with the molecule.

Molecule: CC1=CC(=O)NS(=O)(=O)O1 [Acesulfame K, acesulfame K]
EC50: 374 ± 11 µM
R1 = Variant EC50/WT EC50: 0.5
Max ΔF/F0: 0.24 ± 0.01

Molecule: O=S(=O)(O)NC1CCCCC1 [Cyclamate, cyclamate]
EC50: 2110 ± 55 µM

Molecule: C[C@H](CC[C@@H](O[C@@H]1O[C@H](CO[C@@H]2O[C@H](CO)[C@@H](O)[C@H](O)[C@H]2O)[C@@H](O)[C@H](O)[C@H]1O[C@@H]1O[C@H](CO)[C@@H](O)[C@H](O)[C@H]1O)C(C)(C)O)[C@H]1CC[C@@]2(C)[C@@H]3CC=C4[C@@H](CC[C@H](O[C@@H]5O[C@H](CO[C@@H]6O[C@H](CO)[C@@H](O)[C@H](O)[C@H]6O)[C@@H](O)[C@H](O)[C@H]5O)C4(C)C)[C@]3(C)[C@H](O)C[C@]12C [Mogroside V, mogroside V]
EC50: 19.9 ± 1.1 µM
R1 = Variant EC50/WT EC50: 1.2
Max ΔF/F0: 1.18 ± 0.02

Molecule: COc1ccc(CCC(=O)c2c(O)cc(O[C@@H]3O[C@H](CO)[C@@H](O)[C@H](O)[C@H]3O[C@@H]3O[C@@H](C)[C@H](O)[C@@H](O)[C@H]3O)cc2O)cc1O [NHDC, neohesperidin dihydrochalcone]
EC50: 100 ± 5.1 µM
R1 = Variant EC50/WT EC50: 1.3
Max ΔF/F0: 0.81 ± 0.02

Molecule: COC(=O)[C@H](Cc1ccccc1)NC(=O)[C@H](CC(=O)O)NCCC(C)(C)C [Neotame]
EC50: 0.67 ± 0.16 µM
R1 = Variant EC50/WT EC50: 0.8
Max ΔF/F0: 0.53 ± 0.04

Molecule: C=C(C)[C@@H]1CC=C(/C=N/O)CC1 [Perillartine, perillartine]
EC50: 26.3 ± 1.1 µM
R1 = Variant EC50/WT EC50: 1.5
Max ΔF/F0: 1.35 ± 0.03

Molecule: C=C1C[C@@]23CC[C@H]4[C@@](C)(CCC[C@@]4(C)C(=O)O[C@@H]4O[C@H](CO)[C@@H](O)[C@H](O[C@@H]5O[C@H](CO)[C@@H](O)[C@H](O)[C@H]5O)[C@H]4O[C@@H]4O[C@H](CO)[C@@H](O)[C@H](O)[C@H]4O)[C@@H]2CC[C@]1(O[C@@H]1O[C@H](CO)[C@@H](O)[C@H](O[C@@H]2O[C@H](CO)[C@@H](O)[C@H](O)[C@H]2O)[C@H]1O[C@@H]1O[C@H](CO)[C@@H](O)[C@H](O)[C@H]1O)C3 [Rebaudioside M, rebaudioside M]
EC50: 19.5 ± 0.9 µM
R1 = Variant EC50/WT EC50: 1.2
Max ΔF/F0: 0.99 ± 0.02

Molecule: OC[C@H]1O[C@H](O[C@]2(CCl)O[C@H](CCl)[C@@H](O)[C@@H]2O)[C@H](O)[C@@H](O)[C@H]1Cl [Sucralose]
EC50: 80 ± 13 µM
R1 = Variant EC50/WT EC50: 0.9
Max ΔF/F0: 0.50 ± 0.03

Source: publication PMC11945486, “TAS1R2/TAS1R3 Single-Nucleotide Polymorphisms Affect Sweet Taste Receptor Activation by Sweeteners: The SWEET Project” (Nutrients, 2025)
